US6730666B1, “Pharmaceutical compositions comprising porphyrins and some novel porphyrin derivatives” (Yeda Research and Development Co. Ltd., priority 1998, dated 2004)
Entries after “also recorded” stand apart in the source; their conditions may differ. Where two headings read alike, the source gives them in different places.

Assays:
[1] = molecular target: FGFR-1 (Mus musculus, UniProt P16092); assay: Binding of 125I-bFGF to CHO cells expressing FGFR-1
Source text: First we utilized a cell-free system, measuring the binding of radiolabeled bFGF to a dimeric soluble FGFR-1 fused to alkaline phosphatase. The soluble FRAP was immobilized using an anti-alkaline phosphatase antibody prebound to agarose-protein A beads (see Methods, section (iii)). As a: second experimental model, we used CHO cells deficient in heparan sulfate and genetically engineered to express FGFR-1 (Methods, section (iv)).

[2] = molecular target: FGF receptor (Mus musculus, UniProt P16092); assay: In vitro inhibition of bFGF binding (assay format not stated); conditions: inhibition of bFGF binding
[3] = molecular target: T1, FGFR-3 (Homo sapiens, UniProt P22607); assay: Binding of 125I-FGF9 to CHO cells transfected with FGFR-3; conditions: FIG. 12
T1 construct: expressed in transfected cells; host or cells: CHO cells (mutant 745)
Procedure: CHO mutant cells-745 expressing FGFR-3 were incubated for 90 min at 4° C. in the presence of increasing concentrations of the porphyrins, with 1 μg/ml of heparin and ^125I-FGF9 (2 ng/ml). The binding medium was discarded and the cells were washed with ice cold DMEM/BSA. To determine receptor binding of ^125I-FGF9, the cells were incubated in cold PBS (pH 4) containing 1.6M NaCl and 25 mM HEPES, and the cell extract was counted in a γ-counter.
(iv) Binding of ^125I-bFGF and ^125I-FGF9 to cells. Confluent cultures of CHO cells expressing FGFR-1(Yayon et al, 1991) or FGFR-3 (Hecht et al, 1995) in 24-well plates (Falcon) were precooled and washed twice with cold DMEM supplemented with 20 mM Hepes (pH 7.5) and 0.1% bovine serum albumin (DMEM/BSA). They were then incubated for 1.5 h at 4° C. with ^125I-bFGF (2 ng/ml) and increasing concentrations of porphyrin/corrole compound. The binding medium was discarded and the cells were washed once with ice-cold DMEM/BSA and twice with cold PBS (pH 7.5) containing 1.6M NaCl. […] Non-specific binding was determined in the presence of a 100-fold excess of unlabeled bFGF.

[4] = test system: Lewis lung carcinoma (LLC) lung metastasis; assay: Lewis lung carcinoma lung metastasis model; format: in vivo, C57 black mice; parameters: Inhibitory activity in vivo, LLC tumor model (as % of total inhibition): reference not given here; conditions: for Inhibitory activity in vivo, LLC tumor model (as % of total inhibition): 25 μg/gram, LLC murine tumor model, lung metastasis
Procedure: (vii) Lewis lung carcinoma tumor assay. Murine Lewis lung carcinoma (LLC) D122 cells (1×10^6 cells/[…] PBS) were injected into the foot pads of 10-week old C57 black mice (O'Reilly et al, 1994). Twenty five μg/g of body mass of porphyrin or corrole compound dissolved in PBS were injected IP twice a week to the treated group, and tumor size was measured periodically in order to follow primary tumor formation. In order to evaluate inhibition of lung metastasis by porphyrin or corrole compound, the primary tumors were allowed to develop over a period of six weeks to a volume of approximately 8 mm^3; after which the tumors were removed and metastases were allowed to develop for four weeks. During this time the treated group received 25 μg/g of body mass of porphyrin or corrole compound IP twice a week. Subsequently the mice were sacrificed, dissected and the lungs removed and photographed. The extent of lung metastasis was measured by weighing the lungs.
After establishing the capacity of P1 to inhibit primary tumor growth, the capacity of P1 to inhibit lung metastasis formation was measured as described in Methods, section (vi). Mice were injected with LLC cells (200,000 cells per mouse) into the foot pad and primary tumors were allowed to develop over a period of 3 to 4 weeks to a volume of approximately 8 mm^3. Subsequently, primary tumors were removed through amputation and lung metasases were allowed to develop for four weeks before the mice were sacrificed. The extent of lung metastasis at this point was examined by gross morphological examination and by determining the gain in lung weight. […] In order to quantitate the results from these experiments, the lungs from all mice were weighed and evaluated for the extent of metastatic growth.

[5] = test system: FGFR-3 expressing CHO cells; assay: FGF-9 induced mitogenic activity (DNA synthesis) of FGFR-3 expressing CHO cells; format: cell-based; conditions: FIG. 13
Procedure: CHO cells genetically engineered to express FGFR-3 were grown in the presence of increasing concentrations of porphyrins P1 and P16 in order to determine the ability of the porphyrins to inhibit FGF-9 induced DNA synthesis.
CHO cells genetically engineered to express FGFR-3 were used in order to determine the ability of the porphyrins P1 and P16 to inhibit biological activity of FGFR3 as measured by the level of DNA synthesis induced by FGF-9.

[6] = molecular target: T2, soluble FGFR-1 (FRAP) (Mus musculus, UniProt P16092); assay: Binding of 125I-bFGF to immobilized soluble FGFR-1 (FRAP), cell-free
T2 sequence (P16092 22-376 limits assumed): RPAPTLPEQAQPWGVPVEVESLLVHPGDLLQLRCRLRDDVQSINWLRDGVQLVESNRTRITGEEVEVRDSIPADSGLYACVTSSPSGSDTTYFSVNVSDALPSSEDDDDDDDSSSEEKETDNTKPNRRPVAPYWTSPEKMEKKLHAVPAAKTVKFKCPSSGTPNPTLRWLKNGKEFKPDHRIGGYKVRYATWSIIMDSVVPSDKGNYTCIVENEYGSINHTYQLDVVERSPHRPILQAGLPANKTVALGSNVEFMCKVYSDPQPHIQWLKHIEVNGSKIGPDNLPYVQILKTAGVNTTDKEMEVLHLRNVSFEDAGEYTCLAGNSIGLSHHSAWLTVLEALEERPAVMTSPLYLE
Source text: First we utilized a cell-free system, measuring the binding of radiolabeled bFGF to a dimeric soluble FGFR-1 fused to alkaline phosphatase. […] As a: second experimental model, we used CHO cells deficient in heparan sulfate and genetically engineered to express FGFR-1 (Methods, section (iv)).

[7] = molecular target: T3, FGFR-1 alkaline phosphatase fusion protein (FRAP) (Mus musculus, UniProt P16092); assay: Binding of soluble FGFR-1 alkaline phosphatase fusion protein (FRAP) to bFGF immobilized on heparin (Screen AP assay)
T3 construct: soluble FGFR-1 ectodomain alkaline phosphatase fusion protein (FRAP); made in house; host or cells: NIH 3T3 cells (conditioned medium)
T3 sequence (P16092 22-376 limits assumed): T2 sequence (P16092 22-376 limits assumed)
Procedure: (ii) Binding of soluble FGFR-1 alkaline phosphatase fusion protein (FRAP) to immobilized bFGF. […] The end-point of the assay measured enzymatically the formation of FGF-receptor complexes quantitated by the specifically associated alkaline phosphatase (AP) catalyzed chromogenic product.
Subsequently, 200 μl of FRAP condition medium and porphyrin/corrole compound were added and incubated together for 2 h.
In order to identify inhibitors of FGF-FGFR interactions, an assay for testing FGFR-ligand binding was developed. The system is composed of bFGF bound to a heparin matrix to which soluble FGFR-1 ectodomain alkaline phosphatase fusion protein (FRAP) and the screened compounds are added (see Methods, section (ii)).

[8] = test system: smooth muscle cells; assay: Smooth muscle cell proliferation induced by bFGF; format: cell-based; conditions: 2 μg/ml or 20 μg/ml of P1; bFGF 10 ng/ml; FIG. 16
Procedure: In order to determine the ability of P1 to inhibit the biological activity of bFGF on cell proliferation, smooth muscle cells were grown in 24-well plates in the presence of bFGF (10 ng/ml) and in the presence of 2 μg/ml or 20 μg/ml of P1. Cell number was determined daily by counting cell samples under a microscope.

Chain of FGFR-1 (P16092 22-822): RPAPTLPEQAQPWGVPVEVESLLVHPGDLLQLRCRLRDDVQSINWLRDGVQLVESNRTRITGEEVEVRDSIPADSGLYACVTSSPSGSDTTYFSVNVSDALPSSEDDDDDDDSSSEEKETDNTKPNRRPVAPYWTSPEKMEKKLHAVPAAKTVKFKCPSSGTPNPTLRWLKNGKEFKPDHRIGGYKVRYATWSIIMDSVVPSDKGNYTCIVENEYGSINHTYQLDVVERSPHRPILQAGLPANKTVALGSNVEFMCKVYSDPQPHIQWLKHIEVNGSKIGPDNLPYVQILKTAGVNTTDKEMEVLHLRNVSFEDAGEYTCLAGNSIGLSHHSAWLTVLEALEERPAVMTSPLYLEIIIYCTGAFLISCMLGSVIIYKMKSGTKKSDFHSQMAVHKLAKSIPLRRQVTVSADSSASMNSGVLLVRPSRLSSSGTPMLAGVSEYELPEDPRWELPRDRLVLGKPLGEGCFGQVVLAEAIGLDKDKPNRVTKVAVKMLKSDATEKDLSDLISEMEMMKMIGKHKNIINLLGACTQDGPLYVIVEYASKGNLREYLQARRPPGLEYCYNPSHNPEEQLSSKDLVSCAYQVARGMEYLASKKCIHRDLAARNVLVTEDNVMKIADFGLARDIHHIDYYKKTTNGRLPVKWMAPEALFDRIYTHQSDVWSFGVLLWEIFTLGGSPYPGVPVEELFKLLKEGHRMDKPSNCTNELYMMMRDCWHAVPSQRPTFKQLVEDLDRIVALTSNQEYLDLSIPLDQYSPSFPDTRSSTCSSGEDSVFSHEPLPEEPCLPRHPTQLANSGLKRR
Chain of FGF receptor (P16092 22-822): as above
T1 sequence (P22607 23-806, species assumed): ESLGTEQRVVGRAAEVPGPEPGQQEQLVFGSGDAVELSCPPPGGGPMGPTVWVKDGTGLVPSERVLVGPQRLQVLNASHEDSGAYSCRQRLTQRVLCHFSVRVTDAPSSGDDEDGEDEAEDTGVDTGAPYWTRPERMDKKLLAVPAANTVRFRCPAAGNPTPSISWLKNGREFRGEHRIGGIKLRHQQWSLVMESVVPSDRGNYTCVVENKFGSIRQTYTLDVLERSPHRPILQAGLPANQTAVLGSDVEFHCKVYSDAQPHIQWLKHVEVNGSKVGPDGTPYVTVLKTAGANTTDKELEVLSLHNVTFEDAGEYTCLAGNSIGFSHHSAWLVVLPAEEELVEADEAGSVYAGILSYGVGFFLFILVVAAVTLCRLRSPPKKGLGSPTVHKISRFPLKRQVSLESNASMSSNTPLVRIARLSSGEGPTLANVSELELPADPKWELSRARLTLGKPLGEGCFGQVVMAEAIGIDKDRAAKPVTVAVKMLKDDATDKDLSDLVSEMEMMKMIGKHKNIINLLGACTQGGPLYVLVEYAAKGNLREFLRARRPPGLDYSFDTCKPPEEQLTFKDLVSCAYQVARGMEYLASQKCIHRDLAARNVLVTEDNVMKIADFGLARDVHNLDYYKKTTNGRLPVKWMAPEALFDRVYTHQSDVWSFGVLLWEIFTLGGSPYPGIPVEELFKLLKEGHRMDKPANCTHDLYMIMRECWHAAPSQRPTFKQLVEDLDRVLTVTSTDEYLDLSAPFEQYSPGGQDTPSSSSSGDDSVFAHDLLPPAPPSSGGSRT

IC50 ([1]; read-out: Cellular receptor binding (IC50), binding of FGF to FGFR, Methods section (iv)) | Activity in vitro relative to P1 (fold) [2] | IC50, FGF-9 binding in the cellular receptor system [3] | IC50 ([6]; read-out: Soluble receptor binding (IC50), binding of FGF to FGFR, Methods section (iii)) | Compound | Inhibitory activity in vivo, LLC tumor model (as % of total inhibition) [4] | Effect on cell proliferation induced by FGF-9 [5] | IC50 ([1]; Cellular receptor binding (IC50), binding of FGF to FGFR, Methods section (iv)) | IC50 ([1]; IC50, bFGF binding in the cellular receptor system, FIG. 1C) | Inhibition of lung metastasis in LLC model, in words ([4]; 25 μg/g of body mass IP) | Lung weight ([4]; P1 25 μg/g of body mass, FIG. 7) | IC50 ([7]; FIG. 1A, read-out: IC50, inhibition of FRAP binding to bFGF immobilized on heparin matrix (converted)) | IC50 ([7]; IC50, inhibition of binding of soluble FGFR-1 to bFGF immobilized on heparin, text of detailed description) | IC50 ([7]; binding of FGF to FGFR, Methods section (ii), read-out: Screen AP assay (IC50)) | IC50 ([6]; IC50, bFGF-FGFR1 binding in the soluble receptor (FRAP) assay, FIG. 1B) | IC50 ([6]; Soluble receptor binding (IC50), binding of FGF to FGFR, Methods section (iii)) | Effect on smooth muscle cell proliferation induced by bFGF [8]
0.02 µM | about 50 fold | 0.1 mg/L | 0.01 µM | C[n+]1ccc(-c2c3nc(c(-c4cc[n+](C)cc4)c4ccc([nH]4)c(-c4c(F)c(F)c(F)c(F)c4F)c4nc(c(-c5cc[n+](C)cc5)c5ccc2[nH]5)C=C4)C=C3)cc1.[I-].[I-].[I-] [Compound P16, 5-Pentafluorophenyl-10,15,20-tris(N-methyl-4-pyridylium)-21H,23H-porphine triiodide] | 60% | strong inhibitory effect |  |  |  |  |  |  |  |  |  | 
 |  |  |  | C[n+]1ccc(-c2c3nc(c(-c4cc[n+](C)cc4)c4ccc([nH]4)c(-c4cc[n+](C)cc4)c4nc(c(-c5cc[n+](C)cc5)c5ccc2[nH]5)C=C4)C=C3)cc1 [Compound P1, 5,10,15,20-Tetrakis(N-methyl-4-pyridylium)-21H,23H-porphine tetra-p-tosylate] | 100% | strong inhibitory effect | 1.5 µM | ~2.5 µM | no metastatic phenotype; also recorded: nearly total inhibition of the metastatic phenotype | around 200 mg | 0.133 µM | 90 µM | 0.075 µM | ~1 µM | 0.75 µM | strong inhibitory effect
